Results from patent US20230041563A1, “N-(1,3,4-OXADIAZOL-2-YL)ARYLCARBOXAMIDES OR SALTS THEREOF, PREPARATION METHODS, HERBICIDAL COMPOSITIONS AND USES THEREOF” (priority 2018, published 2023).

Tests used:
Digitaria sanguinalis = test: Weeding effect in post-emergence stage (greenhouse pot spray); type: in vivo; conditions: for Digitaria sanguinahs (activity level): Table 3, dose 60 g a.i./ha
Outline: (§1)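 Pot-grown greenhouse plants, 2-3 leaf stage; spray-tower application; formulation acetone/Tween 80 plus methyl oleate EC 1.5 liter/ha as synergist; rates 500, 250, 125, 60, 15 g a.i./ha; assessed 3 wk post-treatment as fresh weight control, n=3.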

Setaria viridis = test: as above; type: in vivo; conditions: Table 3, dose 60 g a.i./ha
Outline: as §1

Echinochloa crusgalli = test: as above; type: in vivo
Outline: as §1

Abutilon theophrasti = test: as above; type: in vivo; conditions: for Abutilon theophrasti (activity level): Table 3, dose 60 g a.i./ha
Outline: as §1

[1] = system: rice and Echinochloa crusgali; test: Herbicide selection index between rice and Echinochloa crusgali; type: in vivo; conditions: average dose causing 10% phytotoxicity to rice divided by average dose causing 90% control efficiency to Echinochloa crusgali
[2] = system: Indica rice (Huanghuazhan); test: Safety test of control experiments on rice; type: in vivo; conditions: Dose 250 g a.i./ha
Description: (§2) The activity level criteria for plant damage (i.e., growth control rate) are as follows: Comparative Experiments: [table]

[3] = system: Japonica rice (Huaidao No. 5); test: Safety test of control experiments on rice; type: in vivo; conditions: Dose 250 g a.i./ha
Description: as §2

Stellaria media = test: Weeding effect in post-emergence stage (greenhouse pot spray); type: in vivo
Outline: as §1

Amaranthus retroflexus = test: as above; type: in vivo
Outline: as §1

Scirpus juncoides = test: Transplanted rice safety evaluation and weed control effect evaluation in rice field; type: in vivo; conditions: Table 7, dose 125 g a.i./ha, 14 days after treatment
Description: (§3) Transplanted rice safety evaluation and weed control effect evaluation in rice field:
(§4) Rice field soil was loaded into a 1/1,000,000 ha pot. The seeds of echinochloa crusgali, scirpus juncoides, Bidens tripartita, Sagittaria trifolia, Monochoria vaginalis and Leptochloa chinensis were sowed and gently covered with soil, then left to stand still in greenhouse in the state of 0.5-1 cm of water storage. The tuber of Sagittaria trifolia was planted in the next day or 2 days later. It was kept at 3-4 cm of water storage thereafter. The weeds were treated by dripping the WP or SC water diluents prepared according to the common preparation method of the compounds of the present invention with pipette homogeneously to achieve specified effective amount when echinochloa crusgali, scirpus juncoides, Bidens tripartita, Monochoria vaginalis and Leptochloa chinensis reached 0.5 leaf stage and Sagittaria trifolia reached the time point of primary leaf stage.
(§5) The fertility condition of echinochloa crusgali, scirpus juncoides, Bidens tripartita, Leptochloa chinensis, Sagittaria trifolia and Monochoria vaginalis 14 days after the treatment of the compound of the invention and the fertility condition of rice 21 days after the treatment of the compound of the invention respectively with the naked eye. Evaluate the weed control effect with 0-5 activity standard level. Many compounds show excellent activity and selectivity.

Monochoria vaginalis = test: as above; type: in vivo; conditions: Table 7, dose 125 g a.i./ha, 14 days after treatment
Description: as §3, §4, §5

Echinochloa crusgali = test: as above; type: in vivo; conditions: Table 7, dose 125 g a.i./ha, 14 days after treatment
Description: as §3, §4, §5

Rice = test: as above; type: in vivo, rice (japonica rice/Indica rice); conditions: Table 7, dose 125 g a.i./ha, 21 days after treatment
Method: as §3
In addition, the rice field soil that loaded into the 1/1,000,000 ha pot was leveled to keep water storage at 3-4 cm depth. The 3 leaf stage rice (japonica rice/Indica rice) was transplanted at 3 cm of transplanting depth the next day. The compound of the present invention was treated by the same way after 5 days of transplantation.
as §5

SMILES	Digitaria sanguinalis (activity level) (Digitaria sanguinalis; Table 2, dose 250 g a.i./ha)	Echinochloa crusgah (activity level) (Echinochloa crusgalli; Table 2, dose 250 g a.i./ha)	Abutilion theophrasti (activity level) (Abutilon theophrasti; Table 2, dose 250 g a.i./ha)	Selection index between rice and Echinochloa crusgali [1]	Indica rice (Huanghuazhan) (plant damage level) [2]	Japonica rice (Huaidao No. 5) (plant damage level) [3]	Stellaria media (activity level) (Stellaria media; Table 2, dose 250 g a.i./ha)	Amaranthus retroflexus (activity level) (Amaranthus retroflexus; Table 2, dose 250 g a.i./ha)	Scirpus juncoides (activity level) (Scirpus juncoides)	Monochoria vaginalis (activity level) (Monochoria vaginalis)	Echinochloa crusgali (activity level) (Echinochloa crusgali)	Rice (safety level) (Rice)	also measured
Cc1nnc(NC(=O)c2ccc(C(F)(F)F)c([S+]([O-])CC(C)C)c2F)o1 (racemic) [Compound 1-20]	5 (Level 5: growth control rate is above 85%)	5 (Level 5: growth control rate is above 85%)	5 (Level 5: growth control rate is above 85%)	>5	0 (Level 0: growth control rate is less than 5%)	0 (Level 0: growth control rate is less than 5%)	5 (Level 5: growth control rate is above 85%)	5 (Level 5: growth control rate is above 85%)					Digitaria sanguinahs (activity level) (Digitaria sanguinalis): 5 (Level 5: growth control rate is above 85%); Setaria viridis (activity level) (Setaria viridis): 5 (Level 5: growth control rate is above 85%); Abutilon theophrasti (activity level) (Abutilon theophrasti): 5 (Level 5: growth control rate is above 85%)
CCCS(=O)(=O)c1c(C(F)(F)F)ccc(C(=O)Nc2nnc(C)o2)c1F [Compound 1-9]	5 (Level 5: growth control rate is above 85%)	5 (Level 5: growth control rate is above 85%)	5 (Level 5: growth control rate is above 85%)	>5	0 (Level 0: growth control rate is less than 5%)	0 (Level 0: growth control rate is less than 5%)	5 (Level 5: growth control rate is above 85%)	5 (Level 5: growth control rate is above 85%)					Digitaria sanguinalis (activity level) (Digitaria sanguinalis; Table 2, dose 125 g a.i./ha): 5 (Level 5: growth control rate is above 85%); Echinochloa crusgah (activity level) (Echinochloa crusgalli; Table 2, dose 125 g a.i./ha): 5 (Level 5: growth control rate is above 85%); Abutilion theophrasti (activity level) (Abutilon theophrasti; Table 2, dose 125 g a.i./ha): 5 (Level 5: growth control rate is above 85%); Stellaria media (activity level) (Stellaria media; Table 2, dose 125 g a.i./ha): 5 (Level 5: growth control rate is above 85%); Amaranthus retroflexus (activity level) (Amaranthus retroflexus; Table 2, dose 125 g a.i./ha): 5 (Level 5: growth control rate is above 85%)
CCS(=O)(=O)c1c(C(F)(F)F)ccc(C(=O)Nc2nnc(C)o2)c1F [Compound 1-6]	5 (Level 5: growth control rate is above 85%)	5 (Level 5: growth control rate is above 85%)	5 (Level 5: growth control rate is above 85%)	>5	0 (Level 0: growth control rate is less than 5%)	0 (Level 0: growth control rate is less than 5%)	5 (Level 5: growth control rate is above 85%)	5 (Level 5: growth control rate is above 85%)	5 (Level 5: growth control rate is above 85%)	5 (Level 5: growth control rate is above 85%)	5 (Level 5: growth control rate is above 85%)	0 (Level 0: growth control rate is less than 5%)	Digitaria sanguinalis (activity level) (Digitaria sanguinalis; Table 2, dose 125 g a.i./ha): 5 (Level 5: growth control rate is above 85%); Echinochloa crusgah (activity level) (Echinochloa crusgalli; Table 2, dose 125 g a.i./ha): 5 (Level 5: growth control rate is above 85%); Abutilion theophrasti (activity level) (Abutilon theophrasti; Table 2, dose 125 g a.i./ha): 5 (Level 5: growth control rate is above 85%); Stellaria media (activity level) (Stellaria media; Table 2, dose 125 g a.i./ha): 5 (Level 5: growth control rate is above 85%); Amaranthus retroflexus (activity level) (Amaranthus retroflexus; Table 2, dose 125 g a.i./ha): 5 (Level 5: growth control rate is above 85%)
Cc1nnc(NC(=O)c2ccc(C(F)(F)F)c([S+]([O-])CCC(F)(F)F)c2F)o1 (racemic) [Compound 1-52]				>5	0 (Level 0: growth control rate is less than 5%)	0 (Level 0: growth control rate is less than 5%)							Digitaria sanguinalis (activity level) (Digitaria sanguinalis; Table 2, dose 500 g a.i./ha): 5 (Level 5: growth control rate is above 85%); Digitaria sanguinahs (activity level) (Digitaria sanguinalis): 5 (Level 5: growth control rate is above 85%); Setaria viridis (activity level) (Setaria viridis): 5 (Level 5: growth control rate is above 85%); Echinochloa crusgah (activity level) (Echinochloa crusgalli; Table 2, dose 500 g a.i./ha): 5 (Level 5: growth control rate is above 85%); Abutilion theophrasti (activity level) (Abutilon theophrasti; Table 2, dose 500 g a.i./ha): 5 (Level 5: growth control rate is above 85%); Abutilon theophrasti (activity level) (Abutilon theophrasti): 5 (Level 5: growth control rate is above 85%); Stellaria media (activity level) (Stellaria media; Table 2, dose 500 g a.i./ha): 5 (Level 5: growth control rate is above 85%); Amaranthus retroflexus (activity level) (Amaranthus retroflexus; Table 2, dose 500 g a.i./ha): 5 (Level 5: growth control rate is above 85%)
Cc1nnc(NC(=O)c2ccc(C(F)(F)F)c([S+]([O-])C(C)C)c2F)o1 (racemic) [Compound 1-11]	5 (Level 5: growth control rate is above 85%)	5 (Level 5: growth control rate is above 85%)	5 (Level 5: growth control rate is above 85%)				5 (Level 5: growth control rate is above 85%)	5 (Level 5: growth control rate is above 85%)	5 (Level 5: growth control rate is above 85%)	5 (Level 5: growth control rate is above 85%)	5 (Level 5: growth control rate is above 85%)	0 (Level 0: growth control rate is less than 5%)	
Cc1nnc(NC(=O)c2ccc(C(F)(F)F)c(SC3CC3)c2F)o1 [Compound 1-76]									5 (Level 5: growth control rate is above 85%)	5 (Level 5: growth control rate is above 85%)	5 (Level 5: growth control rate is above 85%)	0 (Level 0: growth control rate is less than 5%)	
CCCCSc1c(C(F)(F)F)ccc(C(=O)Nc2nnc(C)o2)c1F [Compound 1-13]	5 (Level 5: growth control rate is above 85%)	5 (Level 5: growth control rate is above 85%)	5 (Level 5: growth control rate is above 85%)	>5	0 (Level 0: growth control rate is less than 5%)	0 (Level 0: growth control rate is less than 5%)	5 (Level 5: growth control rate is above 85%)	5 (Level 5: growth control rate is above 85%)					
Cc1nnc(NC(=O)c2ccc(C(F)(F)F)c([S+]([O-])C3COC3)c2F)o1 (stereo not drawn) [Compound 1-82]				>5	0 (Level 0: growth control rate is less than 5%)	0 (Level 0: growth control rate is less than 5%)							Digitaria sanguinalis (activity level) (Digitaria sanguinalis; Table 2, dose 500 g a.i./ha): 5 (Level 5: growth control rate is above 85%); Echinochloa crusgah (activity level) (Echinochloa crusgalli; Table 2, dose 500 g a.i./ha): 5 (Level 5: growth control rate is above 85%); Abutilion theophrasti (activity level) (Abutilon theophrasti; Table 2, dose 500 g a.i./ha): 5 (Level 5: growth control rate is above 85%); Stellaria media (activity level) (Stellaria media; Table 2, dose 500 g a.i./ha): 5 (Level 5: growth control rate is above 85%); Amaranthus retroflexus (activity level) (Amaranthus retroflexus; Table 2, dose 500 g a.i./ha): 5 (Level 5: growth control rate is above 85%)
